{"source": "patent US6653319B1", "about": "“Pharmaceutical formulation for poorly water soluble camptothecin analogues” (University of Kentucky Research Foundation, priority 2001, dated 2003)", "key": {"[1]": {"assay": "Solubilities of DB-67 in various solvent systems at 25° C. (excess drug, filtration, HPLC)", "format": "physicochemical", "procedure": "Solubilities of DB-67 or camptothecin in a given solvent system were determined by adding an amount of the drugs well in excess of its estimated solubility to 1-2 mL of the desired solvent in a 4-mL glass vial. The capped vial was rotated in a VWR2010 incubator set at 25° C. for a period of 3-15 days. The sample was then passed through a 0.45 μm filter, except for liposome or emulsion samples, which were passed through a 1.2 μm filter. The collected sample was weighed, diluted with methanol, and analyzed by HPLC. The HPLC system consisted of a Discovery C18 15 cm×4.6 mm column and a Discovery C18 2 cm×4.6 mm 5 μm guard column (Supelco), a Beckman 110B solvent delivery module, a Rheodyne M7125 injector with a […] (Rainin), a Waters M2487 Dual λ Absorbance detector set at 254 nm, an HP 3392A integrator, and a mobile phase of 25% and 41% (v/v) acetonitrile in 2% (w/v) triethylamine acetate for camptothecin and DB-67, respectively.\nThe solubility-pH profile for DB-67 in aqueous solution is presented in FIG. 2, where the curve is a […] using an equilibrium model for the base-catalyzed lactone-ring opening and ionization of substituents in DB-67 (10-OH and the —COOH when the lactone-ring is opened at a basic pH)."}, "[2]": {"assay": "Solubility method to determine complex formation constant with SBE-CD", "format": "physicochemical", "procedure": "(§1) To understand the complexation mechanisms behind this solubilization effect, a solubility method was employed to determine the formation constant between a camptothecin analogue and a cyclodextrin derivative. In the solubility experiment, the solution pH was controlled below 4.6 with a 30 mM citrate buffer.\n(§2) In the limit of [CD]>>So, the relevant formation constants can be expressed as: […]\n(§3) where So is the solubility in the absence of cyclodextrins, Kf^1:1 and Kf^1:2 are the 1:1 and 1:2 complex formation constants, and [CD] is concentration of cyclodextrin. A linear least-squares fit of the data for SBE-CD as shown in FIG. 3 yields the complex formation constant of Kf^1:1=8.5±0.2×10^3M^−1(r^2=0.999). […] The inability for SBE-CD to form 1:2 complexes with DB-67 apparently arises from the presence of an average of seven negatively charged sulfobutyl ether groups in a SBE-CD molecule preventing the approach of two SBE-CDs to each other to form 1:2 complexes. A least-squares fit of the data for HP-CD as shown in FIG. 3 according to Equation 1 yields the 1:1 and 1:2 complex formation constants of Kf^1:1=5.8±0.2×10^3M^−1 and […]±0.2 ×10^4M^−1(r^2=1.000)."}, "[3]": {"assay": "Solubility method to determine complex formation constants with HP-CD", "format": "physicochemical", "procedure": "as §1, §2, §3"}, "[4]": {"assay": "Reaction kinetics of lactone-ring opening and closing (hydrolysis) in aqueous solution by HPLC", "format": "physicochemical", "procedure": "The reaction kinetics for the E-ring opened and closed DB-67 were investigated in aqueous solutions at pH 7.4 and 4.0, respectively. The reactions were thermostated at 25±0.1° C. by a circulation water bath and initiated by adding 0.1 mL of reactants (Species I DB-67 in DMSO or Species II DB-67 in 2 mM NaOH; see FIG. 1) to a 30 mM phosphate or acetate buffer solution with an initial reactant concentration of 2-4×10^−6 M. After the addition and at different time intervals, aliquots of the reaction solutions were withdrawn and immediately assayed by HPLC. The concentrations of both species I and II were monitored in order to evaluate the mass balance and other possible degradation products. Simultaneous non-linear least-squares fits of the kinetic profiles yield the first-order rate constants for the lactone-ring opening and closing processes of kopen=1.1±0.1×10^−4 s^−1 and kclose=3.3±0.3×10^−4 s^−1.\nWe have also investigated the hydrolysis processes for the lactone-ring intact DB-67 (Species I) at pH 7.4 in the presence of 20% (w/v) SBE-CD and HP-CD, respectively. […] The fitted rate constants are kopen=(7.1±0.1)×10^−5s^−1 and kopen=(6.2±0.1)×10^−5s^−1 for 20% (w/v) SBE-CD and HP-CD, respectively. As noted above, the presence of 20% (w/v) SBE-CD or HP-CD reduces the rate for the lactone-ring opening process by 1.6- and 1.8-fold, respectively. The rate reduction is therefore more marked in the presence of HP-CD."}, "[5]": {"format": "physicochemical", "procedure": "A successful pharmaceutical formulation with a supersaturated drug concentration requires a physical stability with respect to drug precipitation. In our first attempt, 20-25 mg/mL of DB-67 was loaded in DMSO because of the drug's high solubility in this solvent. The dissolved DB-67 was then added slowly to a 20% (w/v) SBE-CD aqueous solution by a volume ratio of 1:9 to achieve a final drug concentration of 2 mg/mL. The dilution rate was maintained at 0.10 mL/min. […] A proper control of the release pattern (local or uniform) and rate of DB-67 into the dilution medium is therefore critical to the success of this type of formulation approach.\nAs described above, a slow and uniform release of DB-67 into a dilution medium may be accomplished by employing a chemical approach, namely by converting the E-ring opened DB-67 (Species II, see FIG. 1), which is highly water-soluble, to the neutral E-ring closed DB-67 (Species I) in a controlled fashion. […] Accordingly, 20 mg/mL of DB-67 was loaded in a sodium hydroxide solution with NaOH concentration maintained at twice that of the drug concentration. The prepared DB-67 alkaline aqueous solution was passed through a 0.2 μm filter before it was added slowly (0.11 mL/min) into 20% (w/v) acidic SBE-CD solution by a volume ratio of 1:9. In order to completely neutralize DB-67, HCl was present in the dilution solution in an amount equal to the amount of NaOH in the DB-67 alkaline solution. A small amount of acetate buffer (5 mM) was also included in the dilution medium to control the solution pH to about 4 in order to facilitate a timely conversion from the E-ring opened DB-67 to its E-ring closed counterpart.\nShortly after the lyophilization, the lyophilized sample was reconstituted and the stability of the reconstituted solution was examined following the same procedure as described above.\nThe precipitation profiles of DB-67 solutions containing other solubilizing agents such as liposomes and an acidic aqueous cosolvent solution comprising an equal volume mixture of ethanol and cremophor, prepared as described in Examples 3 and 4, respectively, were evaluated."}, "[6]": {"settings": "compared with FDA approved camptothecin analogs (Camptosar and Hycamtin); cited from earlier work"}, "[7]": {"settings": "HP-CD, E-ring closed DB-67, pH below 4.6, 30 mM citrate buffer, fit to Equation 1"}}, "note": "“Also recorded” adds a separate entry of the source.", "data": [{"compound": "CC[C@@]1(O)C(=O)OCc2c1cc1n(c2=O)Cc2c-1nc1ccc(O)cc1c2[Si](C)(C)C(C)(C)C", "note": "[DB-67, 7-t-butyldimethylsilyl-10-hydroxycamptothecin]", "values": [{"measurement": "S (solubility)", "setting": "[1]; 5% Cremophor, 5% (v/v) in 5% (w/v) Dextrose/Water, 25° C., single sample", "value": 0.2, "unit": "mg/mL"}, {"measurement": "S (solubility)", "setting": "[1]; 10% (v/v) PEG-400/water, 25° C.", "value": "(3.3 ± 0.5) × 10^−2 mg/mL"}, {"measurement": "S (solubility)", "setting": "[1]; 40% (w/v) HPCD/water, 25° C.", "value": "(4.9 ± 0.2) × 10^−1 mg/mL"}, {"measurement": "S (solubility)", "setting": "[1]; 40% (w/v) SBE-CD/water/1 mM HCl, 25° C.", "value": "(2.09 ± 0.04) × 10^−1 mg/mL"}, {"measurement": "S (solubility)", "setting": "[1]; 40% PG, 10% (v/v) EtOH/water, 25° C.", "value": "(1.73 ± 0.04) × 10^−1 mg/mL"}, {"measurement": "S (solubility)", "setting": "[1]; 50% (v/v) PEG-400/water, 25° C.", "value": "(2.0 ± 0.3) × 10^−1 mg/mL"}, {"measurement": "S (solubility)", "setting": "[1]; 50% Cremophor, 50% (v/v) EtOH (Diluent-12), 25° C.", "value": "(7.5 ± 0.2) × 10^0 mg/mL"}, {"measurement": "S (solubility)", "setting": "[1]; Emulsion (20% soybean oil, 2% glycerin, 73% water, 4% Tween80, 1% eggPC), 25° C.", "value": "(2.06 ± 0.05) × 10^−1 mg/mL"}, {"measurement": "S (solubility)", "setting": "[1]; Liposome (70:25:5 (mole) DMPC:Chol:DMPG), 25° C.", "value": "(7.4 ± 0.3) × 10^−3 mg/mL"}, {"measurement": "S (solubility)", "setting": "[1]; Water/30 mM acetate buffer at pH 5.23, 25° C.", "value": "(1.11 ± 0.00) × 10^−5 mg/mL"}, {"measurement": "S (solubility)", "setting": "[1]; Water/0.5 M carbonate buffer at pH 10.20, 25° C., single sample", "value": 0.178, "unit": "mg/mL"}, {"measurement": "solubility in an aqueous solution of acidic pH", "setting": "[1]; pH 5.2, DB-67 mostly in E-ring intact form", "value": 0.11, "unit": "μg/mL"}, {"measurement": "solubility in an aqueous solution", "setting": "[1]; pH >10.2, mostly lactone-ring opened form", "value": "~18", "unit": "mg/mL"}, {"measurement": "DB-67 bound to SBE-CD", "setting": "[2]; 20% (w/v) SBE-CD, predominantly 1:1 complexes", "value": "more than 99.8%"}, {"measurement": "1:1 complex formation constant Kf^1:1", "setting": "[2]; SBE-CD, neutral E-ring intact DB-67, pH below 4.6, 30 mM citrate buffer, linear fit r^2=0.999", "value": "8.5±0.2×10^3 M^−1"}, {"measurement": "DB-67 included in the CD hydrophobic cavity", "setting": "[3]; 20% (w/v) HP-CD", "value": "more than 99.9%"}, {"measurement": "complexes in the form of 1:2 complexes", "setting": "[3]; 20% (w/v) HP-CD", "value": "roughly 46%"}, {"measurement": "1:1 complex formation constant Kf^1:1", "setting": "[3]; [7]", "value": "5.8±0.2×10^3 M^−1"}, {"measurement": "1:2 complex formation constant (printed as Kf^1:1)", "setting": "[3]; [7]", "value": "3.8±0.2 ×10^4 M^−1"}, {"measurement": "reduction in the observed rate constant", "setting": "[4]; 20% (w/v) HP-CD, pH 7.4", "value": "approximately 44%"}, {"measurement": "reduction of the rate for the lactone-ring opening process", "setting": "[4]; 20% (w/v) HP-CD, pH 7.4", "value": 1.8, "unit": "fold"}, {"measurement": "reduction of the rate for the lactone-ring opening process", "setting": "[4]; 20% (w/v) SBE-CD, pH 7.4", "value": 1.6, "unit": "fold"}, {"measurement": "first-order rate constant for lactone-ring closing kclose", "setting": "[4]; pH 4.0, 30 mM buffer, 25° C., no cyclodextrin", "value": "3.3±0.3×10^−4 s^−1"}, {"measurement": "first-order rate constant for lactone-ring opening kopen", "setting": "[4]; pH 7.4, 30 mM buffer, 25° C., no cyclodextrin", "value": "1.1±0.1×10^−4 s^−1"}, {"measurement": "rate constant kopen", "setting": "[4]; pH 7.4, in the presence of 20% (w/v) HP-CD", "value": "(6.2±0.1)×10^−5 s^−1"}, {"measurement": "rate constant kopen", "setting": "[4]; pH 7.4, in the presence of 20% (w/v) SBE-CD", "value": "(7.1±0.1)×10^−5 s^−1"}, {"measurement": "overall DB-67 concentration in the solution over time", "setting": "[5]; 2 mg/mL DB-67, 1:9 dilution of alkaline solution into 20% (w/v) acidic SBE-CD, pH 4.4", "value": "remained constant over an extended period of three days"}, {"measurement": "time for conversion to E-ring closed DB-67 to be nearly complete", "setting": "[5]; 20% (w/v) SBE-CD, measured solution pH 4.4", "value": "≤ 100", "unit": "min"}, {"measurement": "precipitation on mechanical mixing of DB-67 in DMSO with 20% (w/v) SBE-CD", "setting": "[5]; lactone-intact DB-67 in DMSO diluted into 20% (w/v) SBE-CD aqueous solution, final concentration >1 mg/mL (2 mg/mL, 1:9, 0.10 mL/min)", "value": "precipitation occurs immediately; also recorded: precipitation occurred even during the mixing process and continued after the finish of mixing"}, {"measurement": "loss of DB-67 during the preparation process", "setting": "[5]; stable solutions prepared by the present method", "value": "< 2", "unit": "%"}, {"measurement": "potency in in vitro cytotoxicity assays", "setting": "[6]", "value": "comparable potency to other FDA approved camptothecin analogs"}]}]}
